≈ marks a conversion by molar mass, not a printed value.
Experiments:
[1] = test system: MRSA KS6; experiment: MIC, broth microdilution, MRSA KS6; assay type: cell-based, Staphylococcus aureus; conditions: for MIC-fold improvement vs. vancomycin: MRSA KS6, ratio of MIC of vancomycin and MIC of analogue; for MIC: Staphylococcus aureus MRSA KS6, read-out: MIC
Description: (§1) The minimum inhibitory concentration (MIC) was determined using the broth microdilution method according to the antimicrobial susceptibility testing standards of the clinical and laboratory standards institute ([Clinical and Laboratory Standards Institute [CLSI], 2012]). Ultrapure water and non-inoculated broth were used as controls. In one case, a final concentration of 10 μM vancomycin was included with the vancomycin analog or control antibiotic.

[2] = test system: S. aureus VISA/HIP5827; experiment: MIC, broth microdilution, vancomycin-intermediate S. aureus VISA HIP5827; assay type: cell-based, Staphylococcus aureus; conditions: for MIC: Staphylococcus aureus VISA/HIP5827, read-out: MIC; for MIC-fold improvement vs. vancomycin: VISA/HIP5827, ratio of MIC of vancomycin and MIC of analogue
Description: as §1

[3] = test system: human cervix carcinoma (HeLa) cells; experiment: Cytostatic activity, HeLa cell proliferation; assay type: cell-based; conditions: mean ± SD of three experiments; highest concentration tested 250 µM; 4 days; read-out: Toxicity (IC50) HeLa
Description: (§2) Murine leukemia (L1210), human T-lymphocyte (CEM) and the human cervix carcinoma (HeLa) cell line were suspended at 300,000–500,000 cells/mL of culture medium, and 100 μL of a cell suspension was added to 100 μL of an appropriate dilution of the test compounds in wells of 96-well microtiter plates. After incubation at 37°C for 2 (L1210), 3 (CEM), or 4 (HeLa) days, the cell number was determined using a Coulter counter. The IC50 was defined per cell type as the compound concentration required to inhibit cell proliferation by 50% compared to the negative control ([Glowacka et al., 2017]).

[4] = test system: E. faecalis VSE 1; experiment: MIC, broth microdilution, vancomycin-sensitive E. faecalis (VSE 1); assay type: cell-based, Enterococcus faecalis; conditions: for MIC: Enterococcus faecalis VSE 1 (vancomycin-sensitive), read-out: MIC; for MIC-fold improvement vs. vancomycin: VSE 1, ratio of MIC of vancomycin and MIC of analogue
Description: as §1

[5] = test system: S. aureus VSSA (ATCC 6538); experiment: MIC, broth microdilution, vancomycin-sensitive S. aureus (VSSA/MSSA, ATCC 6538); assay type: cell-based, Staphylococcus aureus; conditions: for MIC: Staphylococcus aureus VSSA, read-out: MIC; for MIC-fold improvement vs. vancomycin: VSSA, ratio of MIC of vancomycin and MIC of analogue
Description: as §1

[6] = test system: E. faecalis VRE 29; experiment: MIC, broth microdilution, vancomycin-resistant E. faecalis VRE 29 (VanA); assay type: cell-based, Enterococcus faecalis; conditions: for MIC: Enterococcus faecalis VRE 29 (vancomycin-resistant), read-out: MIC; for MIC-fold improvement vs. vancomycin: VRE 29, ratio of MIC of vancomycin and MIC of analogue
Description: as §1

[7] = test system: MRSA KS89; experiment: MIC, broth microdilution, MRSA KS89; assay type: cell-based, Staphylococcus aureus; conditions: for MIC-fold improvement vs. vancomycin: MRSA KS8, ratio of MIC of vancomycin and MIC of analogue; for MIC: Staphylococcus aureus MRSA KS8, read-out: MIC
Description: as §1

[8] = test system: MRSA KS2; experiment: MIC, broth microdilution, MRSA KS2; assay type: cell-based, Staphylococcus aureus; conditions: for MIC-fold improvement vs. vancomycin: MRSA KS2, ratio of MIC of vancomycin and MIC of analogue; for MIC: Staphylococcus aureus MRSA KS2, read-out: MIC
Description: as §1

[9] = test system: E. faecalis VRE 6; experiment: MIC, broth microdilution, vancomycin-resistant E. faecalis VRE 6 (VanA); assay type: cell-based, Enterococcus faecalis; conditions: for MIC: Enterococcus faecalis VRE 6 (vancomycin-resistant), read-out: MIC; for MIC-fold improvement vs. vancomycin: VRE 6, ratio of MIC of vancomycin and MIC of analogue
Description: as §1

[10] = test system: S. aureus VRSA; experiment: MIC, broth microdilution, vancomycin-resistant S. aureus (VRSA); assay type: cell-based, Staphylococcus aureus; conditions: for MIC: Staphylococcus aureus VRSA, read-out: MIC; for MIC-fold improvement vs. vancomycin: VRSA, ratio of MIC of vancomycin and MIC of analogue
Description: as §1

[11] = test system: E. faecalis VRE 53; experiment: MIC, broth microdilution, vancomycin-resistant E. faecalis VRE 53 (VanA); assay type: cell-based, Enterococcus faecalis; conditions: for MIC: Enterococcus faecalis VRE 53 (vancomycin-resistant), read-out: MIC; for MIC-fold improvement vs. vancomycin: VRE 53, ratio of MIC of vancomycin and MIC of analogue
Description: as §1

[12] = test system: Murine leukemia (L1210) cells; experiment: Cytostatic activity, L1210 cell proliferation; assay type: cell-based; conditions: mean ± SD of three experiments; highest concentration tested 250 µM; 2 days; read-out: Toxicity (IC50) L1210
Description: as §2

[13] = test system: MRSA KS1; experiment: MIC, broth microdilution, MRSA KS1; assay type: cell-based, Staphylococcus aureus; conditions: for MIC-fold improvement vs. vancomycin: MRSA KS1, ratio of MIC of vancomycin and MIC of analogue; for MIC: Staphylococcus aureus MRSA KS1, read-out: MIC
Description: as §1

[14] = test system: human T-lymphocyte (CEM) cells; experiment: Cytostatic activity, CEM cell proliferation; assay type: cell-based; conditions: mean ± SD of three experiments; highest concentration tested 250 µM; 3 days; read-out: Toxicity (IC50) CEM
Description: as §2

[15] = test system: L1210, CEM and HeLa cell lines; experiment: Cytostatic activity, average or summary over L1210, CEM and HeLa; assay type: cell-based; conditions: average of L1210, CEM and HeLa; read-out: Toxicity (IC50) Average
Description: as §2

[16] = test system: E. faecalis VRE 37; experiment: MIC, broth microdilution, vancomycin-resistant E. faecalis VRE 37 (VanA); assay type: cell-based, Enterococcus faecalis; conditions: for MIC: Enterococcus faecalis VRE 37 (vancomycin-resistant), read-out: MIC; for MIC-fold improvement vs. vancomycin: VRE 37, ratio of MIC of vancomycin and MIC of analogue
Description: as §1

MIC-fold improvement vs. vancomycin [1] | MIC [1] [µM] | MIC [2] [µM] | MIC-fold improvement vs. vancomycin [2] | MIC [4] [µM] | MIC-fold improvement vs. vancomycin [4] | MIC [5] [µM] | MIC-fold improvement vs. vancomycin [5] | MIC [6] [µM] | MIC-fold improvement vs. vancomycin [6] | MIC-fold improvement vs. vancomycin [7] | MIC [7] [µM] | MIC-fold improvement vs. vancomycin [8] | MIC [8] [µM] | MIC [9] [µM] | MIC-fold improvement vs. vancomycin [9] | MIC [10] [µM] | MIC-fold improvement vs. vancomycin [10] | MIC [11] [µM] | SMILES | IC50 [3] [µM] | also measured
1 | 0.78 (≈ 1.26 µg/mL) | 1.56 (≈ 2.51 µg/mL) | 4 | 1.56 (≈ 2.51 µg/mL) | 1 | 0.78 (≈ 1.26 µg/mL) | 1 | 12.5 (≈ 20.1 µg/mL) | 32 | 1 | 0.78 (≈ 1.26 µg/mL) | 2 | 0.39 (≈ 0.628 µg/mL) | 6.25 (≈ 10.1 µg/mL) | 32 | 12.5 (≈ 20.1 µg/mL) | 8 | 25 (≈ 40.2 µg/mL) | CN[C@H](CC(C)C)C(=O)N[C@H]1C(=O)N[C@@H](CC(N)=O)C(=O)N[C@H]2C(=O)N[C@H]3C(=O)N[C@H](C(=O)N[C@H](C(=O)NCC(=O)Nc4ccc(C)cc4C)c4cc(O)cc(O)c4-c4cc3ccc4O)[C@H](O)c3ccc(c(Cl)c3)Oc3cc2cc(c3O[C@@H]2O[C@H](CO)[C@@H](O)[C@H](O)[C@H]2O[C@H]2C[C@](C)(N)[C@H](O)[C@H](C)O2)Oc2ccc(cc2Cl)[C@H]1O [Vanc-15] | 87 ± 12 | MIC-fold improvement vs. vancomycin [11]: 16; IC50 [12]: > 250 µM; MIC-fold improvement vs. vancomycin [13]: 1; MIC [13]: 0.78 µM (≈ 1.26 µg/mL); IC50 [14]: > 250 µM; IC50 [15]: 196 µM; MIC [16]: 25 µM (≈ 40.2 µg/mL); MIC-fold improvement vs. vancomycin [16]: 16
8 | 0.10 (≈ 0.166 µg/mL) | 0.10 (≈ 0.166 µg/mL) | 64 | 0.20 (≈ 0.332 µg/mL) | 8 | 0.10 (≈ 0.166 µg/mL) | 8 | 6.25 (≈ 10.4 µg/mL) | 64 | 4 | 0.20 (≈ 0.332 µg/mL) | 4 | 0.20 (≈ 0.332 µg/mL) | 1.56 (≈ 2.59 µg/mL) | 128 | 1.56 (≈ 2.59 µg/mL) | 64 | 3.13 (≈ 5.2 µg/mL) | CCCCC#Cc1ccc(NC(=O)CNC(=O)[C@H]2NC(=O)[C@H]3NC(=O)[C@H](NC(=O)[C@@H]4NC(=O)[C@H](CC(N)=O)NC(=O)[C@H](NC(=O)[C@@H](CC(C)C)NC)[C@H](O)c5ccc(c(Cl)c5)Oc5cc4cc(c5O[C@@H]4O[C@H](CO)[C@@H](O)[C@H](O)[C@H]4O[C@H]4C[C@](C)(N)[C@H](O)[C@H](C)O4)Oc4ccc(cc4Cl)[C@H]3O)c3ccc(O)c(c3)-c3c(O)cc(O)cc32)cc1 [Vanc-37] | 118 ± 10 | MIC-fold improvement vs. vancomycin [11]: 128; IC50 [12]: 14 ± 7 µM; MIC-fold improvement vs. vancomycin [13]: 4; MIC [13]: 0.20 µM (≈ 0.332 µg/mL); IC50 [14]: 24 ± 4 µM; IC50 [15]: 52 µM; MIC [16]: 1.56 µM (≈ 2.59 µg/mL); MIC-fold improvement vs. vancomycin [16]: 256
